Here are results for 17 compounds from patent publication US8178658B2 (Dow AgroSciences, LLC, priority 2008, dated 2012).

The test system of assay [1] is beet armyworm (BAW; Spodoptera exigua: Lepidoptera). Description: 128-well diet tray assay on beet armyworm (BAW 50). To be noted: 128-well diet tray assay, second instar BAW larvae, mortality class; for BAW 50 ug/cm2: 50 μg/cm^2 of test compound on diet. In kind it is in vivo. Summed up: (§1)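 HTS: eggs on diet topped with 12 μg cpd/well; dark, 29° C; mortality day 6; mean of 6 reps. Tray: 3–5 L2 larvae/well; diet dosed 50 μg/cm^2; 25° C, 14:10 L:D; 6 d; mean of 8 wells. Scored as ≥50% mortality or not.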

The test system is the same in assay [2]. Description: 96-well microtiter plate-based high throughput (HTS) diet bioassay on beet armyworm (BAW HTS). The conditions noted are these: BAW eggs, 12 μg test compound per well, mortality at 6 d post-treatment, mortality class. In kind it is in vivo. The gist of the method: as §1
The mark [3] stands for this setting: 96-well microtiter plate HTS diet assay.

Each structure is given as a SMILES string.

Consider `CCOC1C(OC)C(C)OC(ON=Cc2ccc(-c3ncn(-c4ccc(OS(=O)(=O)C(F)(F)F)cc4)n3)cc2)C1OC` (stereo not shown) [Compound 112], for which, in assay [1], the “BAW 50 ug/cm2” value was “A (the compound was tested and at least 50 percent mortality was observed)”. Moreover, the “BAW HTS” value in assay [2] (96-well HTS diet bioassay) was “B (either (1) the compound was tested and less than 50 percent mortality was observed or (2) the compound was not tested)”; in assay [2] (setting [3]) it was “B (either (1) the compound was tested and less than 50 percent mortality was observed or (2) the compound was not tested)”.
For `CCCO[C@@H]1[C@@H](OC)[C@@H](OC)[C@H](O/N=C/c2ccc(-c3ncn(-c4ccc(OC(F)(F)C(F)(F)F)cc4)n3)cc2)O[C@H]1C` [Compound 113, 4-[1-(4-pentafluoroethyloxy-phenyl)-1H-[1,2,4]triazol-3-yl]-benzaldehyde, O-((2S,3R,4R,5S,6S)-3,4-dimethoxy-6-methyl-5-propoxy-tetrahydropyran-2-yl)-oxime], the “BAW 50 ug/cm2” value in assay [1] is “A (the compound was tested and at least 50 percent mortality was observed)”. Moreover, in assay [1] (Spodoptera exigua, 144 h, 50 μg/cm2 of test compound on diet, read-out: BAW 50 ug/cm2), the pest or weed control at 50 µg/cm2, 50 µg/cm2 is greater than 50%. Moreover, the “BAW HTS” value in assay [2] (setting [3]) was “B (either (1) the compound was tested and less than 50 percent mortality was observed or (2) the compound was not tested)”. Besides, in assay [2] (Spodoptera exigua, 144 h, 96-well HTS diet bioassay, read-out: BAW HTS), the pest or weed control at 12 µg/well, 12 µg/well is less than 50%.
With `CCOC1C(OC)C(C)OC(ON=Cc2ccc(-c3ncn(-c4ccc(C(F)(F)F)cc4Cl)n3)cc2)C1OC` (stereo not shown) [Compound 115], the “BAW 50 ug/cm2” value in assay [1] was “A (the compound was tested and at least 50 percent mortality was observed)”. For the same compound, the “BAW HTS” value in assay [2] (96-well HTS diet bioassay) was “B (either (1) the compound was tested and less than 50 percent mortality was observed or (2) the compound was not tested)”; in assay [2] (setting [3]) it was “B (either (1) the compound was tested and less than 50 percent mortality was observed or (2) the compound was not tested)”.
In the case of `CCOC1C(OC)C(C)OC(ON=Cc2ccc(-c3ncn(-c4ccc(C(F)(F)F)cn4)n3)cc2)C1OC` (stereo not shown) [Compound 116], the “BAW 50 ug/cm2” value in assay [1] was “A (the compound was tested and at least 50 percent mortality was observed)”. Also, the “BAW HTS” value in assay [2] (96-well HTS diet bioassay) was “B (either (1) the compound was tested and less than 50 percent mortality was observed or (2) the compound was not tested)”; in assay [2] (setting [3]), “B (either (1) the compound was tested and less than 50 percent mortality was observed or (2) the compound was not tested)”.
On to `CCOC1C(OC)C(C)OC(ON=Cc2ccc(-c3ncn(-c4ccc(Cl)nn4)n3)cc2)C1OC` (stereo not shown) [Compound 117], for which, in assay [1], the “BAW 50 ug/cm2” value was “B (either (1) the compound was tested and less than 50 percent mortality was observed or (2) the compound was not tested)”. Further, the “BAW HTS” value in assay [2] (96-well HTS diet bioassay) is “B (either (1) the compound was tested and less than 50 percent mortality was observed or (2) the compound was not tested)”; in assay [2] (setting [3]), “B (either (1) the compound was tested and less than 50 percent mortality was observed or (2) the compound was not tested)”.
With `CCCOC1C(OC)C(C)OC(ON=Cc2ccc(-c3ncn(-c4ccc(C(F)(F)F)cn4)n3)cc2)C1OC` (stereo not shown) [Compound 118], the “BAW 50 ug/cm2” value in assay [1] was “A (the compound was tested and at least 50 percent mortality was observed)”. The “BAW HTS” value was “B (either (1) the compound was tested and less than 50 percent mortality was observed or (2) the compound was not tested)” in assay [2] (96-well HTS diet bioassay); “B (either (1) the compound was tested and less than 50 percent mortality was observed or (2) the compound was not tested)” in assay [2] (setting [3]).
In the case of `COCC1OC(ON=Cc2ccc(-c3ncn(-c4ccc(OC(F)(F)C(F)(F)F)cc4)n3)cc2)C(OC)C(OC)C1OC` (stereo not shown) [Compound 119], the “BAW 50 ug/cm2” value in assay [1] is “A (the compound was tested and at least 50 percent mortality was observed)”. The “BAW HTS” value in assay [2] (96-well HTS diet bioassay) was “A (the compound was tested and at least 50 percent mortality was observed)”; in assay [2] (setting [3]), “A (the compound was tested and at least 50 percent mortality was observed)”.
For `CCOC1C(OC)C(C)OC(ON=Cc2ccc(-c3ncn(-c4ccc(OC(F)(F)F)cc4)n3)cc2)C1OC` (stereo not shown) [Compound 120], in assay [1], the “BAW 50 ug/cm2” value is “A (the compound was tested and at least 50 percent mortality was observed)”. Also, the “BAW HTS” value is “A (the compound was tested and at least 50 percent mortality was observed)” in assay [2] (96-well HTS diet bioassay); “A (the compound was tested and at least 50 percent mortality was observed)” in assay [2] (setting [3]).
In the case of `CCOC1C(OC)C(C)OC(ON=Cc2ccc(-c3ncn(-c4ccc(C(F)(F)F)nc4)n3)cc2)C1OC` (stereo not shown) [Compound 121], in assay [1], the “BAW 50 ug/cm2” value is “A (the compound was tested and at least 50 percent mortality was observed)”. The “BAW HTS” value in assay [2] (96-well HTS diet bioassay) is “B (either (1) the compound was tested and less than 50 percent mortality was observed or (2) the compound was not tested)”; in assay [2] (setting [3]), “B (either (1) the compound was tested and less than 50 percent mortality was observed or (2) the compound was not tested)”.
Take `CCOC1C(OC)C(C)OC(ON=Cc2ccc(-c3ncn(-c4ccc(OC(F)(F)F)cc4)n3)cn2)C1OC` (stereo not shown) [Compound 123]: in assay [1], the “BAW 50 ug/cm2” value was “A (the compound was tested and at least 50 percent mortality was observed)”. The “BAW HTS” value was “B (either (1) the compound was tested and less than 50 percent mortality was observed or (2) the compound was not tested)” in assay [2] (96-well HTS diet bioassay); “B (either (1) the compound was tested and less than 50 percent mortality was observed or (2) the compound was not tested)” in assay [2] (setting [3]).
As for `CCOC1C(OC)C(C)OC(ON=Cc2ccc(-c3ncn(-c4ccc(OC(F)(F)C(F)(F)Br)cc4)n3)cc2)C1OC` (stereo not shown) [Compound 124], the “BAW 50 ug/cm2” value in assay [1] is “A (the compound was tested and at least 50 percent mortality was observed)”. The “BAW HTS” value is “B (either (1) the compound was tested and less than 50 percent mortality was observed or (2) the compound was not tested)” in assay [2] (96-well HTS diet bioassay); “B (either (1) the compound was tested and less than 50 percent mortality was observed or (2) the compound was not tested)” in assay [2] (setting [3]).
Consider `CCOc1ccc(-n2cnc(-c3ccc(C=NOC4OC(C)C(OC)C(OCC)C4OC)cc3)n2)cc1` (stereo not shown) [Compound 125], for which, in assay [1], the “BAW 50 ug/cm2” value is “A (the compound was tested and at least 50 percent mortality was observed)”. Also, the “BAW HTS” value in assay [2] (96-well HTS diet bioassay) is “B (either (1) the compound was tested and less than 50 percent mortality was observed or (2) the compound was not tested)”; in assay [2] (setting [3]), “B (either (1) the compound was tested and less than 50 percent mortality was observed or (2) the compound was not tested)”.
`CCOC1C(OC)C(C)OC(ON=Cc2ccc(-c3ncn(-c4ccc(C#N)cc4)n3)cc2)C1OC` (stereo not shown) [Compound 126]: in assay [1], the “BAW 50 ug/cm2” value was “A (the compound was tested and at least 50 percent mortality was observed)”. In addition, the “BAW HTS” value in assay [2] (96-well HTS diet bioassay) is “B (either (1) the compound was tested and less than 50 percent mortality was observed or (2) the compound was not tested)”; in assay [2] (setting [3]), “B (either (1) the compound was tested and less than 50 percent mortality was observed or (2) the compound was not tested)”.
As to `CCOC1C(OC)C(C)OC(ON=Cc2ccc(-c3ncn(-c4ccc([N+](=O)[O-])cc4)n3)cc2)C1OC` (stereo not shown) [Compound 127], the “BAW 50 ug/cm2” value in assay [1] is “A (the compound was tested and at least 50 percent mortality was observed)”. For the same compound, the “BAW HTS” value was “B (either (1) the compound was tested and less than 50 percent mortality was observed or (2) the compound was not tested)” in assay [2] (96-well HTS diet bioassay); “B (either (1) the compound was tested and less than 50 percent mortality was observed or (2) the compound was not tested)” in assay [2] (setting [3]).
For `CCOC1C(OC)C(C)OC(ON=Cc2ccc(-c3nc(-c4ccc(OC(F)(F)F)cc4)ns3)cc2)C1OC` (stereo not shown) [Compound 128], in assay [1], the “BAW 50 ug/cm2” value is “A (the compound was tested and at least 50 percent mortality was observed)”. Besides, the “BAW HTS” value in assay [2] (96-well HTS diet bioassay) was “B (either (1) the compound was tested and less than 50 percent mortality was observed or (2) the compound was not tested)”; in assay [2] (setting [3]) it was “B (either (1) the compound was tested and less than 50 percent mortality was observed or (2) the compound was not tested)”.
For the compound `CCOC1C(OC)C(C)OC(ON=Cc2ccc(-c3nsc(-c4ccc(OC(F)(F)F)cc4)n3)cc2)C1OC` (stereo not shown) [Compound 129], the “BAW 50 ug/cm2” value in assay [1] is “A (the compound was tested and at least 50 percent mortality was observed)”. The “BAW HTS” value in assay [2] (96-well HTS diet bioassay) was “B (either (1) the compound was tested and less than 50 percent mortality was observed or (2) the compound was not tested)”; in assay [2] (setting [3]), “B (either (1) the compound was tested and less than 50 percent mortality was observed or (2) the compound was not tested)”.
In the case of `COC1C(C)OC(ON=Cc2ccc(-n3nnc(-c4ccc(C(F)(F)F)cc4)n3)cc2)C(OC)C1OC` (stereo not shown) [Compound 131], the “BAW 50 ug/cm2” value in assay [1] is “B (either (1) the compound was tested and less than 50 percent mortality was observed or (2) the compound was not tested)”. Moreover, the “BAW HTS” value in assay [2] (96-well HTS diet assay) is “B (either (1) the compound was tested and less than 50 percent mortality was observed or (2) the compound was not tested)”; in assay [2] (setting [3]) it was “B (either (1) the compound was tested and less than 50 percent mortality was observed or (2) the compound was not tested)”.
